Reference: patent publication US7354921B2, “Pyrazolotriazines as kinase inhibitors” (Schering Corporation, priority 2004, dated 2008)

target: T1, CDK2 (Homo sapiens, UniProt P24941); assay: CDK2 in vitro kinase assay (cyclin A or E-dependent), 33P-ATP SPA; type: biochemical; conditions: recombinant cyclin-CDK2 complex (cyclin A or E, not specified); biotinylated Histone H1 peptide substrate; 1 hour at room temperature; read-out: CDK 2 IC50
T1 construct: The expressed protein is approximately 34 kDa in size; made in house; host or cells: SF9 insect cells (recombinant baculovirus, pFASTBAC)

SMILES | IC50
CCc1cnn2c(NCc3cncnc3)nc(N3CCCC[C@H]3CCO)nc12 | 0.56 nM
CCc1cnn2c(NCc3ccn(CC)c(=O)c3)nc(N3CCCC[C@H]3CCO)nc12 | 0.52 nM
Cn1cc(CNc2nc(N3CCCC[C@H]3CCO)nc3c(C4CC4)cnn23)ccc1=O | 3.1 nM
CCc1cnn2c(Nc3ccc(S(C)(=O)=O)cc3)nc(N3CCCC[C@H]3CCO)nc12 | 106 nM
CCc1cnn2c(NCc3ccnnc3)nc(N3CCCC[C@H]3CCO)nc12 | 1.2 nM
CCc1cnn2c(NCc3cccnc3)nc(N3CCCC[C@H]3CCO)nc12 | 0.88 nM
CCc1cnn2c(NCc3ccc(=O)n(C)c3)nc(N3CCCC[C@H]3CCO)nc12 | 0.48 nM
